Data taken from patent publication US10349659B2, “Plant disease control composition and plant disease control method” (SUMITOMO CHEMICAL COMPANY, LIMITED, priority 2015, dated 2019).

Legend:
wheat leaf blight fungus = experiment: Test Example 3: growth of wheat leaf blight fungus in YBG medium, microtiter plate; format: cell-based, Mycosphaerella graminicola; settings: 18° C., six days, absorbance 550 nm
Method: The present compound 1 or the present compound 2-1 was dissolved into dimethyl sulfoxide such that each concentration of the present compound 1 or the present compound 2-1 was adjusted to one hundred fifty times as much as the concentration indicated in the below-mentioned Table 5. The resultant agent solution was dispensed into a microtiter plate (with 96 wells) in 1 μl portion thereof per well. One hundred forty nine (149) μl of YBG medium (which was prepared by dissolving 10 g of yeast extract, 10 g of Bacto Peptone, and 20 mL of glycerol into 1 L of water, followed by sterilizing the medium) was dispensed into the wells to which the agent solution(s) was/were dispensed. The plate was cultivated at 18° C. for six days, thereby allowing wheat leaf blight fungus to undergo proliferation, and the absorbance at 550 nm of each well of the micro titer plate was then measured to examine a degree of growth of the wheat leaf blight fungus (hereinafter referred to as “treated group”).
Whereas, wheat leaf blight fungus was proliferated similarly to the case of the treated group except that dimethyl sulfoxide was used instead of the agent solution, and the degree of the growth was examined (hereinafter referred to as “untreated group”). The efficacy was calculated from the respective obtained degree of growth by the below-mentioned “Equation 1”. […]

[1] = system: wheat rust fungus (Puccinia recondita); experiment: Test Example 4: foliar spray of flowable formulations on wheat, wheat rust lesion area; format: in vivo; settings: foliar spray on wheat one day before inoculation, lesion area after ten days at 23° C.
Method: Five (5) parts of the present compound 1, 35 parts of a mixture of white carbon and ammonium polyoxyethylene alkyl ether sulfate (the weight ratio of 1:1) and […] of water were mixed, and the mixture was then finely-ground by a wet grinding method to obtain a flowable formulation comprising the present compound 1. Separately, the flowable formulation comprising the present compound 2-1 was prepared according to the above-mentioned similar method except that the present compound 2-1 was used instead of the present compound 1 to form a flowable formulation comprising the present compound 2-1.
Each of the above-mentioned respective flowable formulations, and the flowable formulation comprising the present compound 1 and the present compound 2-1 that was prepared according to the above-mentioned Formulation Example 3 was diluted with water such that each concentration of the respective compounds in the dilution solutions was adjusted to that indicated in Table 6, to prepare the dilution solutions, respectively.
A plastic pot was filled with soil, and thereto wheat (cultivar. Shirogane) was seeded, and the plants were grown in a greenhouse for ten days. […]
From each of the lesion area of the treated group and the untreated group, respectively, the efficacy of the treated group was calculated by the below-mentioned Equation 2. […]

CC1CC(C)(C)c2cccc(NC(=O)c3cn(C)nc3C(F)F)c21 (stereo not shown) [Present compound 1]
Efficacy (%) (wheat leaf blight fungus; concentration in medium 0.005 ppm): 15%
Efficacy (%) (wheat leaf blight fungus; concentration in medium 0.1 ppm): 70%
Efficacy (%) ([1]; 0.0005 ppm): 56%
Efficacy (%) ([1]; 0.01 ppm): 68%
